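Values below derive from 48-hour exposures of cells grown in 96-well plates, with endpoints linearly interpolated between the two concentrations bracketing the appropriate inhibition level. Abbreviation: GI50, concentration required for 50% inhibition of growth.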 Calls of active or inactive are those of the source. No stated cut-off is given here; in the data, active = GI50 up to about 1.1 µM and inactive = higher.

Test systems include HCT-15; T47D; SN12C; IGROV-1; SK-MEL-28; MDA-MB-435; HT-29; U-251; DU-145; NCI-H23; PC-3; OVCAR-4; CAKI-1; SR; NCI-H460; SK-OV-3; OVCAR-3; CCRF-CEM; A498; SF-268.
Common to all, as to assay: NCI anticancer screen, dose series, 48 h

As to `CCCNc1[nH]c(C(=O)c2ccccc2)c(N)c1C(=S)Nc1ccccc1`, the GI50 in the assay on HCT-15 was more than 100 µM; with T47D it was > 100 µM (inactive); with SN12C it was > 100 µM (inactive); in the assay with IGROV-1, > 100 µM (inactive); in the assay with SK-MEL-28, > 100 µM (inactive); with MDA-MB-435, > 100 µM (inactive). In addition, the GI50 in the assay with HT-29, in the assay with U-251, with DU-145, in the assay on NCI-H23, with PC-3 and with OVCAR-4 was > 100 µM (inactive) throughout. Moreover, the GI50 in the assay on CAKI-1, in the assay on SR, with NCI-H460, with SK-OV-3, in the assay on OVCAR-3 and in the assay with CCRF-CEM was > 100 µM (inactive) each time. Also, the GI50 in the assay on A498 and in the assay on SF-268 was > 100 µM (inactive) throughout.

These data come from ChEMBL document CHEMBL1201862, “PubChem BioAssay data set” (2004).
